Entries after “also recorded” stand apart in the source; their conditions may differ. Structures can show the parent of a compound that is named as a salt.
Key:
[1] = Particular toxicity in grouped mice; details: mouse, in vivo, ip
Method: The number of dead animals is noted after 1 hour, 2 hours, 3 hours, 4 hours and 24 hours.

[2] = test system: nigrostriatal dopaminergic system; test: Interaction with alpha-methyltyrosine on stereotypies (difference from amphetamine); details: α-methyltyrosine (catecholamine synthesis blocked)
[3] = test system: mice; test: Overall behavior and reactivities in mice; type: in vivo, mouse; details: dose not stated
Method: (§1) In the neuropsychopharmacological study which follows, a solution of CRL 41 153 in distilled water (pH 1.5) was administered intraperitoneally in a volume of 20 ml/kg to male mice and 5 ml/kg to male rats.
(§2) Groups of three animals are observed before and then 0.25 hour, 0.50 hour, 1 hour, 2 hours, 3 hours and 24 hours after the administration of CRL 41 153.

[4] = test system: rats; test: Overall behavior and reactivities in rats; type: in vivo, rat; details: dose not stated
Method: as §1, §2

[5] = test system: mice; test: Interaction with apomorphine in mice; type: in vivo, mouse; details: i.p.
Method: Groups of 6 mice receive CRL 41 153 0.5 hour before the subcutaneous injection of 1 or 16 mg/kg of apomorphine.

[6] = test system: rats; test: Interaction with apomorphine in rats; type: in vivo, rat; details: i.p.
Method: CRL 41 153 is administered to groups of 6 rats 0.5 hour before the subcutaneous injection of 0.5 mg/kg of apomorphine.

[7] = test system: rats; test: Interaction with amphetamine; type: in vivo, rat; details: i.p.
Method: Amphetamine (2 mg/kg) is injected intraperitoneally into groups of 6 rats 30 minutes after the administration of CRL 41 153. […] 4 mg/kg and 16 mg/kg, CRL 41 153 potentiates the intensity and duration of the stereotypies induced by amphetamine.

[8] = test system: mice; test: Interaction with reserpine; type: in vivo, mouse; details: i.p.
Method: Four hours after the intraperitoneal injection of 2.5 mg/kg of reserpine, groups of 6 mice receive CRL 41 153.

[9] = test system: mice; test: Interaction with oxotremorine; type: in vivo, mouse; details: i.p.
Method: CRL 41 153 is administered to groups of 6 mice 0.5 hour before the intraperitoneal injection of 0.5 mg/kg of oxotremorine.

[10] = test system: mice; test: Four plate test, traction and electric shock; type: in vivo, mouse; details: i.p.
Method: The test is performed on groups of 10 mice 30 minutes after the administration of CRL 41 153.

[11] = test system: mice; test: Spontaneous motility; type: in vivo, mouse; details: i.p.
Method: 0.5 hour after they have received CRL 41 153, the mice (6 per dose, 12 control animals) are placed in an actimeter, where their motility is recorded for 30 minutes.

[12] = test system: mice; test: Intergroup aggressiveness; type: in vivo, mouse; details: i.p.
Method: After they have stayed for 3 weeks in the two halves of a cage divided by an opaque partition, groups of 3 mice receive CRL 41 153. Half an hour later, the two groups from the same cage are brought together by removal of the partition, and the number of fights which occur in 10 minutes is noted.

[13] = test system: mice; test: Motility reduced by habituation to the enclosure; type: in vivo, mouse; details: i.p.
Method: After they have stayed In the actimeters for 18 hours, (he mice (6 per dose, 12 control animals) receive CRL 41 153. They are immediately returned to their respective enclosures and, half an hour later, their motility is recorded for 30 minutes.

[14] = test system: mice; test: Motility reduced by hypoxic aggression; type: in vivo, mouse; details: i.p.
Method: Half an hour after they have received CRL 41 153, the mice (10 per dose, 20 control animals) are subjected to acute hypobaric anoxia [pressure reduction of 600 mm Hg (i.e. about 8×10^4 Pa) in 90 seconds; release of vacuum in 45 seconds] and are then placed in an actimeter, where their motility is recorded for 10 minutes.

[15] = test system: mice; test: Asphyxiant anoxia (gallamine triiodoethylate); type: in vivo, mouse; details: i.p., curarizing agent
Method: Groups of 10 mice receive CRL 41 153 half an hour before the intraperitoneal administration of 32 mg/kg of gallamine triiodoethylate (reference curarizing agent).

[16] = test system: mice; test: Interaction with barbital; type: in vivo, mouse; details: i.p., barbital 220 mg/kg
Method: Half an hour after the administration of CRL 41 153, groups of 10 mice receive an intraperitoneal injection of barbital (220 mg/kg).

[17] = test system: mice; test: Behavioral despair; type: in vivo, mouse; details: forcibly immersed mice, i.p.
Excerpt: Half an hour after they have received CRL 41 153, groups of 6 mice are placed in a beaker filled with water to a height of 6 cm. The total period of immobility between the 2nd and 6th minutes following immersion is noted.

[18] = test system: dogs; test: Cardiovascular study in anesthetized dogs; type: in vivo, dog
Method: Two dogs (average weight: 14.1 kg), anesthetized with nembutal, receive CRL 41 194 by intraduodenal administration at successive doses of 0.1 mg/kg, 0.5 mg/kg, 1 mg/kg, 2.5 mg/kg, 5 mg/kg and 10 mg/kg (in solution in physiological solvent).
The blood pressure, the heart rate, the blood flow through the femoral artery, the blood flow through the vertebral artery and the rectal temperature are measured. The coloration of the skin and the coloration of the bile, collected by catheterization of the bile duct after ligature of the cystic duct, are observed.
4 dogs (average weight: 14 kg), anesthetized with nembutal, receive CRL 41 221 by intraduodenal administration at successive doses of 0.1 mg/kg, 0.5 mg/kg, 1 mg/kg, 2.5 mg/kg, 5 mg/kg and 10 mg/kg. The blood pressure, the heart rate, the blood flow through the femoral artery, the blood flow through the vertebral artery and the rectal temperature are measured. The coloration of the skin is observed.

[19] = test system: gravid White New Zealand female rabbits; test: Teratogenicity in gravid White New Zealand rabbits; type: in vivo, rabbit; details: day 5 to day 18 of gestation; for Affected foetuses, %: normal limit 1.5%
Summary of the method: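 Fetuses harvested by cesarean on gestation day 29 were scored for number and for any malformation (limb blockade, anury, tail or skull defects, exencephaly).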

[20] = pH of solutions in distilled water; type: physicochemical
Method: The neuropsychopharmacological study was undertaken according to the procedures described above for CRL 41 153, CRL 41 213 being adminstered intraperitoneally, in solution in distilled water, in a volume of 20 ml/kg to male mice and a volume of 5 ml/kg to male rats, and the pH of the injected solution varying with the concentration of CRL 41 213 according to the data given in Table II below.

[21] = test system: CNS; test: Neuropsychopharmacological profile as a whole; type: in vivo, mice and rats; details: conclusion of the tests
Method: as §1

[22] = test system: immunity; test: Immunological study (overall); details: in vivo; hydrochloride
[23] = anesthetized dogs, intraduodenal
[24] = dogs, after product, isoprenaline 3 μg/kg
[25] = dogs, after product, norepinephrine 2 μg/kg

## CC(N)Cc1ccccc1 (stereo not shown) [amphetamine, reference compound]
[1]
  selectivity ratio: ~8
[2]
  Effect of alpha-methyltyrosine on the stereotypies induced by the substance: totally inhibits the stereotypies induced by amphetamine; also recorded: totally inhibited

## CC(C)NC(C)C(=O)c1ccc(N)c(Cl)c1 (stereo not shown) [CRL 41 221, 1-(4-amino-3-chlorophenyl)-2-isopropylaminopropanone hydrochloride]
[3]
  Stereotype movements (summary): the presence of stereotype movements in mice and rats
[3]; hydrochloride
  Overall behavior: observed effects (summary): excitation with hyperreactivity in mice and rats; also recorded: mydriasis and salivation in mice and rats
[4]
  Stereotype movements (summary): the presence of stereotype movements in mice and rats
[4]; hydrochloride
  Overall behavior: observed effects (summary): excitation with hyperreactivity in mice and rats; also recorded: mydriasis and salivation in mice and rats
[5]
  Effect on hypothermia induced by apomorphine: antagonism of the hypothermia
[6]
  Effect on stereotypies induced by apomorphine: potentiation of the stereotypies
[7]
  Effect on stereotypies induced by amphetamine: potentiation of the stereotypies
[8]
  Effect on hypothermia induced by reserpine: antagonism of the hypothermia
  Effect on ptosis induced by reserpine: a decrease in the ptosis induced by reserpine
[9]
  Effect on hypothermic action of oxotremorine: antagonism of the hypothermia
[10]
  Effect on convulsant effects of electric shock: a reduction in the convulsant effects of electric shock
  Number of punished passes in the four plate test: a moderate increase in the number of punished passes in the 4 plate test on mice (at a strong dose)
[11]
  Spontaneous motor activity: an increase in the spontaneous motor activity of mice
[12]
  Number of fights / intergroup aggressiveness: a reduction in the aggressiveness
[13]
  Motor activity of mice accustomed to their enclosure: resumption in the motor activity of mice accustomed to their enclosure
[14]
  Motor recovery of mice after hypobaric hypoxia: improvement in the motor recovery of mice subjected to acute hypoxia
[15]
  Time taken for convulsions to occur: a reduction in the aggressiveness and (he time taken for convulsions and death to occur
  Time taken for death to occur: a reduction in the aggressiveness and (he time taken for convulsions and death to occur
[16]
  Duration of the sleep induced by barbital: a reduction in the duration of the sleep induced by barbital
[17]
  Period of immobility due to despair: a reduction in the period of immobility of mice which have been forcibly immersed
[18]; anesthetized dogs
  Effect on hypertension induced by norepinephrine: slightly reduced
  Effects of isoprenaline on the blood pressure: not modified as regards the diastolic blood pressure
  Rectal temperature: the rectal temperature and skin temperature rise gradually
  Skin temperature: the rectal temperature and skin temperature rise gradually
[18]; anesthetized dogs, after accumulated dose of 19.1 mg/kg intraduodenal
  Effects of isoprenaline on the heart rate: slightly reduced as regards the heart rate
[18]; [23]
  Blood pressure: A reduction in the diastolic blood pressure is observed at 5 mg/kg and hypotension appears at 10 mg/kg
  Femoral flow: tachycardiac effect as from 2.5 mg/kg, that the femoral flow increases substantially as from this same dose
  Heart rate: tachycardiac effect as from 2.5 mg/kg
  Respiration: the respiration is stimulated
  Vertebral flow: the vertebral flow increases at a dose of 0.5 mg/kg
[18]; anesthetized dogs, hydrochloride
  Effect of propanolol or atenolol on the action of the product: The injection of atenolol into 2 dogs reduces the effects of CRL 41 221; also recorded: the injection of propanolol does not increase the β^- effects
[18]; [24]
  Heart rate after isoprenaline: 262 beats/minute
  Heart rate before isoprenaline: 212 beats/minute
[18]; [25]
  Systolic blood pressure after norepinephrine: 266 mm Hg
  Systolic blood pressure before norepinephrine: 158 mm Hg
[18]; hydrochloride
  Vasodilator (conclusion): vasodiating properties; also recorded: consequently a vasodilator
[19]; 5 mg/kg daily
  Affected foetuses, number: 1
  Total foetuses (live): 91
  Affected foetuses, %: 1.11%
[19]; 10 mg/kg daily
  Affected foetuses, number: 1
  Total foetuses (live): 87
  Affected foetuses, %: 1.14%
[20]; 6 g/liter in distilled water
  pH: 5.0
[20]; 13 g/liter in distilled water
  pH: 4.5
[20]; 50 g/liter in distilled water
  pH: 4.0
[20]; ≤3 g/liter in distilled water
  pH: 5.5
[21]
  Antidepressant effects (overall): antidepressant properties
  Stimulant effects (overall): large stimulant component
  α-adrenergic stimulant effects (overall): an α-adrenergic stimulation component
[22]
  Immunological effect (overall): immunostimulant or immunomodulating effects; also recorded: has an immunomodulating effect and increases the cellular immunity

Source: patent publication US4980377A, “1-(aminophenyl)-2-aminopropanone derivatives” (Laboratoire L. Lafon, priority 1984, dated 1990)
